Data published in ChEMBL document CHEMBL3885861, “Open TG-GATES”.

Organism: Rattus norvegicus
Assay: Open TG-GATES - Regimen: Daily Repeat
Format: toxicity, organism-based, Sprague-Dawley
Design: regimen Daily Repeat, gender Male, age 6 weeks
Conditions: in vivo, po, route gavage; for APTT / Bas / Eos / Fbg / Hb / Ht / Lym / MCH / MCHC / MCV / Mono / Neu / Plat / RBC / Ret / WBC: tissue Blood; for KIDNEY_L / KIDNEY_R / KIDNEY_TOTAL: tissue Kidney; for ALP / ALT / AST / BUN / CRE / DBIL / GLC / IP / K / LDH / Na / PL / RALB / TBIL / TC / TG / TP / gamma-GTP: tissue Plasma
[1] = 30 mg/kg, 72 h, dose level Middle, time 3 day
[2] = 30 mg/kg, […], dose level Middle, time 7 day
[3] = 30 mg/kg, […], dose level Middle, time 14 day
[4] = 30 mg/kg, […], dose level Middle, time 28 day
[5] = 100 mg/kg, 72 h, dose level High, time 3 day
[6] = 100 mg/kg, […], dose level High, time 7 day
[7] = 100 mg/kg, […], dose level High, time 14 day
[8] = 100 mg/kg, […], dose level High, time 28 day

CN(C)CCC=C1c2ccccc2COc2ccccc21 [DOXEPIN]
TERMINAL_BW [1]: 221 g
APTT [1]: 16.8 s
Bas [1]: 0%
Eos [1]: 0.8%
Fbg [1]: 336.2 mg/dL
Hb [1]: 13 g/dL
Ht [1]: 37.8%
Lym [1]: 73.4%
MCH [1]: 21.6 pg
MCHC [1]: 34.4%
MCV [1]: 62.9 fL
Mono [1]: 2.8%
Neu [1]: 22.6%
Plat [1]: 113.6 x10_4/uL
RBC [1]: 600.6 x10_4/ul
Ret [1]: 6.9%
WBC [1]: 66.4 x10_2/uL
KIDNEY_L [1]: 1 g
KIDNEY_R [1]: 1 g
KIDNEY_TOTAL [1]: 2 g
ALP [1]: 1714.2 IU/L
ALT [1]: 50 IU/L
AST [1]: 75 IU/L
BUN [1]: 15 mg/dL
CRE [1]: 0.2 mg/dL
DBIL [1]: 0.018 mg/dL
GLC [1]: 193.6 mg/dL
IP [1]: 7.3 mg/dL
K [1]: 4.5 meq/L
LDH [1]: 94 IU/L
Na [1]: 142.2 meq/L
PL [1]: 147.6 mg/dL
RALB [1]: 2.7 g/dL
TBIL [1]: 0.032 mg/dL
TC [1]: 81.2 mg/dL
TG [1]: 97 mg/dL
TP [1]: 5.9 g/dL
gamma-GTP [1]: 1.2 IU/L
TERMINAL_BW [2]: 252.6 g
TERMINAL_BW [3]: 310 g
TERMINAL_BW [4]: 397.6 g
APTT [2]: 18.3 s
Bas [2]: 0%
Eos [2]: 1%
Fbg [2]: 293.4 mg/dL
Hb [2]: 13.4 g/dL
Ht [2]: 38.2%
Lym [2]: 81.4%
MCH [2]: 21.5 pg
MCHC [2]: 35.1%
MCV [2]: 61.2 fL
Mono [2]: 2.6%
Neu [2]: 14.4%
Plat [2]: 115.8 x10_4/uL
RBC [2]: 624.8 x10_4/ul
Ret [2]: 5.8%
WBC [2]: 90.6 x10_2/uL
APTT [3]: 16.2 s
Bas [3]: 0%
Eos [3]: 1%
Fbg [3]: 310.4 mg/dL
Hb [3]: 14 g/dL
Ht [3]: 40.7%
Lym [3]: 77.2%
MCH [3]: 20.9 pg
MCHC [3]: 34.5%
MCV [3]: 60.6 fL
Mono [3]: 2.4%
Neu [3]: 18.8%
Plat [3]: 101.5 x10_4/uL
RBC [3]: 671.4 x10_4/ul
Ret [3]: 4.6%
WBC [3]: 80.3 x10_2/uL
APTT [4]: 18 s
Bas [4]: 0%
Eos [4]: 1.4%
Fbg [4]: 282 mg/dL
Hb [4]: 14.9 g/dL
Ht [4]: 42%
Lym [4]: 79%
MCH [4]: 19.7 pg
MCHC [4]: 35.4%
MCV [4]: 55.8 fL
Mono [4]: 2.6%
Neu [4]: 16.4%
Plat [4]: 112.2 x10_4/uL
RBC [4]: 754.2 x10_4/ul
Ret [4]: 2.4%
WBC [4]: 93.4 x10_2/uL
KIDNEY_L [2]: 1 g
KIDNEY_R [2]: 1 g
KIDNEY_TOTAL [2]: 2.1 g
KIDNEY_L [3]: 1.2 g
KIDNEY_R [3]: 1.2 g
KIDNEY_TOTAL [3]: 2.4 g
KIDNEY_L [4]: 1.4 g
KIDNEY_R [4]: 1.3 g
KIDNEY_TOTAL [4]: 2.7 g
ALP [2]: 1770.4 IU/L
ALT [2]: 48 IU/L
AST [2]: 72.6 IU/L
BUN [2]: 17.4 mg/dL
CRE [2]: 0.2 mg/dL
DBIL [2]: 0.018 mg/dL
GLC [2]: 191.2 mg/dL
IP [2]: 7.2 mg/dL
K [2]: 4.3 meq/L
LDH [2]: 76.2 IU/L
Na [2]: 142 meq/L
PL [2]: 145.4 mg/dL
RALB [2]: 2.7 g/dL
TBIL [2]: 0.034 mg/dL
TC [2]: 75.8 mg/dL
TG [2]: 106.4 mg/dL
TP [2]: 5.7 g/dL
gamma-GTP [2]: 1.4 IU/L
ALP [3]: 1433.6 IU/L
ALT [3]: 42.8 IU/L
AST [3]: 69 IU/L
BUN [3]: 18.8 mg/dL
CRE [3]: 0.2 mg/dL
DBIL [3]: 0.014 mg/dL
GLC [3]: 191.4 mg/dL
IP [3]: 6.8 mg/dL
K [3]: 4.1 meq/L
LDH [3]: 69.6 IU/L
Na [3]: 142.8 meq/L
PL [3]: 148.6 mg/dL
RALB [3]: 2.7 g/dL
TBIL [3]: 0.026 mg/dL
TC [3]: 71.4 mg/dL
TG [3]: 153.8 mg/dL
TP [3]: 6 g/dL
gamma-GTP [3]: 1 IU/L
ALP [4]: 1369.6 IU/L
ALT [4]: 43.6 IU/L
AST [4]: 67.2 IU/L
CRE [4]: 0.2 mg/dL
DBIL [4]: 0.022 mg/dL
GLC [4]: 185 mg/dL
IP [4]: 6.1 mg/dL
K [4]: 4.1 meq/L
LDH [4]: 81.4 IU/L
Na [4]: 143.6 meq/L
PL [4]: 140.6 mg/dL
RALB [4]: 2.8 g/dL
TBIL [4]: 0.034 mg/dL
TC [4]: 66 mg/dL
TG [4]: 166.4 mg/dL
TP [4]: 6.2 g/dL
gamma-GTP [4]: 1.4 IU/L
TERMINAL_BW [5]: 208.5 g
APTT [5]: 18.1 s
Bas [5]: 0%
Eos [5]: 1.2%
Fbg [5]: 285 mg/dL
Hb [5]: 13.6 g/dL
Ht [5]: 39.2%
Lym [5]: 78%
MCH [5]: 21.3 pg
MCHC [5]: 34.7%
MCV [5]: 61.5 fL
Mono [5]: 3.2%
Neu [5]: 17.2%
Plat [5]: 113.2 x10_4/uL
RBC [5]: 637.4 x10_4/ul
Ret [5]: 6.3%
WBC [5]: 77.5 x10_2/uL
KIDNEY_L [5]: 0.9 g
KIDNEY_R [5]: 0.9 g
KIDNEY_TOTAL [5]: 1.8 g
ALP [5]: 1907.8 IU/L
ALT [5]: 51 IU/L
AST [5]: 75.4 IU/L
BUN [5]: 16.6 mg/dL
CRE [5]: 0.2 mg/dL
DBIL [5]: 0.014 mg/dL
GLC [5]: 196.2 mg/dL
IP [5]: 8.4 mg/dL
K [5]: 4.2 meq/L
LDH [5]: 86 IU/L
Na [5]: 142.6 meq/L
PL [5]: 145.2 mg/dL
RALB [5]: 2.7 g/dL
TBIL [5]: 0.038 mg/dL
TC [5]: 85.4 mg/dL
TG [5]: 58.2 mg/dL
TP [5]: 5.7 g/dL
gamma-GTP [5]: 1.2 IU/L
TERMINAL_BW [6]: 235 g
TERMINAL_BW [7]: 276.3 g
TERMINAL_BW [8]: 344.8 g
APTT [6]: 16.4 s
Bas [6]: 0%
Eos [6]: 1.2%
Fbg [6]: 311.4 mg/dL
Hb [6]: 14 g/dL
Ht [6]: 40.1%
Lym [6]: 75.6%
MCH [6]: 21.1 pg
MCHC [6]: 34.9%
MCV [6]: 60.4 fL
Mono [6]: 2.8%
Neu [6]: 20.2%
Plat [6]: 106.3 x10_4/uL
RBC [6]: 665.6 x10_4/ul
Ret [6]: 5.1%
WBC [6]: 94.7 x10_2/uL
APTT [7]: 17.9 s
Bas [7]: 0%
Eos [7]: 1%
Fbg [7]: 284.2 mg/dL
Hb [7]: 14.7 g/dL
Ht [7]: 42.7%
Lym [7]: 77.6%
MCH [7]: 20.2 pg
MCHC [7]: 34.6%
MCV [7]: 58.4 fL
Mono [7]: 3.2%
Neu [7]: 17.6%
Plat [7]: 101.4 x10_4/uL
RBC [7]: 731 x10_4/ul
Ret [7]: 3.8%
WBC [7]: 106 x10_2/uL
APTT [8]: 20.2 s
Bas [8]: 0%
Eos [8]: 1.2%
Fbg [8]: 290.6 mg/dL
Hb [8]: 16.2 g/dL
Ht [8]: 45.8%
Lym [8]: 78.8%
MCH [8]: 19.9 pg
MCHC [8]: 35.4%
MCV [8]: 56.2 fL
Mono [8]: 1.8%
Neu [8]: 17.8%
Plat [8]: 100.9 x10_4/uL
RBC [8]: 815.6 x10_4/ul
Ret [8]: 2.3%
WBC [8]: 90.5 x10_2/uL
KIDNEY_L [6]: 1 g
KIDNEY_R [6]: 1 g
KIDNEY_TOTAL [6]: 2 g
KIDNEY_L [7]: 1.1 g
KIDNEY_R [7]: 1.1 g
KIDNEY_TOTAL [7]: 2.2 g
KIDNEY_L [8]: 1.3 g
KIDNEY_R [8]: 1.3 g
KIDNEY_TOTAL [8]: 2.6 g
ALP [6]: 1566.6 IU/L
ALT [6]: 44.8 IU/L
AST [6]: 72.4 IU/L
BUN [6]: 17.4 mg/dL
CRE [6]: 0.2 mg/dL
DBIL [6]: 0.018 mg/dL
GLC [6]: 193 mg/dL
IP [6]: 7.9 mg/dL
K [6]: 4.1 meq/L
LDH [6]: 88.8 IU/L
Na [6]: 142 meq/L
PL [6]: 145 mg/dL
RALB [6]: 2.8 g/dL
TBIL [6]: 0.036 mg/dL
TC [6]: 77 mg/dL
TG [6]: 116.8 mg/dL
TP [6]: 6 g/dL
gamma-GTP [6]: 1.8 IU/L
ALP [7]: 1470 IU/L
ALT [7]: 46.2 IU/L
AST [7]: 71.4 IU/L
BUN [7]: 17.8 mg/dL
CRE [7]: 0.2 mg/dL
DBIL [7]: 0.012 mg/dL
GLC [7]: 179.8 mg/dL
IP [7]: 8.1 mg/dL
K [7]: 4.3 meq/L
LDH [7]: 53.8 IU/L
Na [7]: 142.8 meq/L
PL [7]: 141.6 mg/dL
RALB [7]: 2.7 g/dL
TBIL [7]: 0.022 mg/dL
TC [7]: 76 mg/dL
TG [7]: 106.6 mg/dL
TP [7]: 6 g/dL
gamma-GTP [7]: 1.2 IU/L
ALP [8]: 1314.6 IU/L
ALT [8]: 46.8 IU/L
AST [8]: 68.6 IU/L
BUN [8]: 17.2 mg/dL
CRE [8]: 0.2 mg/dL
DBIL [8]: 0.018 mg/dL
GLC [8]: 181 mg/dL
IP [8]: 6.6 mg/dL
K [8]: 4.1 meq/L
LDH [8]: 83.4 IU/L
Na [8]: 144.2 meq/L
PL [8]: 139.6 mg/dL
RALB [8]: 3 g/dL
TBIL [8]: 0.028 mg/dL
TC [8]: 79.2 mg/dL
TG [8]: 74.6 mg/dL
TP [8]: 6.4 g/dL
gamma-GTP [8]: 1 IU/L
